Source: PubChem BioAssay (NCI)
“And” between values parts separate entries of the source, which are not always exact repeats. Equal values may be shown once.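 A five-concentration, 48-hour dose response in 96-well plates underlies each endpoint, interpolated linearly between surrounding concentrations. The concentration for 50% growth inhibition is given as GI50. TGI: concentration producing complete growth inhibition.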

Legend:
Test in all cases: NCI tumour cell line growth inhibition, 48 h
786-0 renal = tested on: 786-0 renal
A498 renal = tested on: A498 renal
A549 NSCLC = tested on: A549 NSCLC
ACHN renal = tested on: ACHN renal
CCRF-CEM leukemia = tested on: CCRF-CEM leukemia
COLO 205 colon = tested on: COLO 205 colon
DLD-1 colon = tested on: DLD-1 colon
DMS 114 small cell lung = tested on: DMS 114 small cell lung
DMS 273 small cell lung = tested on: DMS 273 small cell lung
EKVX NSCLC = tested on: EKVX NSCLC
HCC-2998 colon = tested on: HCC-2998 colon
HCT-116 colon = tested on: HCT-116 colon
HCT-15 colon = tested on: HCT-15 colon
HL-60(TB) leukemia = tested on: HL-60(TB) leukemia
HOP-62 NSCLC = tested on: HOP-62 NSCLC
HOP-92 NSCLC = tested on: HOP-92 NSCLC
HT29 colon = tested on: HT29 colon
IGROV1 ovarian = tested on: IGROV1 ovarian
K-562 leukemia = tested on: K-562 leukemia
KM12 colon = tested on: KM12 colon
KM20L2 colon = tested on: KM20L2 colon
LOX IMVI melanoma = tested on: LOX IMVI melanoma
LXFL 529 NSCLC = tested on: LXFL 529 NSCLC
M14 melanoma = tested on: M14 melanoma
M19-MEL melanoma = tested on: M19-MEL melanoma
MOLT-4 leukemia = tested on: MOLT-4 leukemia
NCI-H226 lung = tested on: NCI-H226 lung
NCI-H23 lung = tested on: NCI-H23 lung
NCI-H460 lung = tested on: NCI-H460 lung
NCI-H522 lung = tested on: NCI-H522 lung
OVCAR-3 ovarian = tested on: OVCAR-3 ovarian
OVCAR-4 ovarian = tested on: OVCAR-4 ovarian
OVCAR-5 ovarian = tested on: OVCAR-5 ovarian
OVCAR-8 ovarian = tested on: OVCAR-8 ovarian
RPMI-8226 leukemia = tested on: RPMI-8226 leukemia
RXF 393 renal = tested on: RXF 393 renal
RXF-631 renal = tested on: RXF-631 renal
SF-268 CNS = tested on: SF-268 CNS
SF-295 CNS = tested on: SF-295 CNS
SF-539 CNS = tested on: SF-539 CNS
SK-MEL-2 melanoma = tested on: SK-MEL-2 melanoma
SK-MEL-28 melanoma = tested on: SK-MEL-28 melanoma
SK-MEL-5 melanoma = tested on: SK-MEL-5 melanoma
SK-OV-3 ovarian = tested on: SK-OV-3 ovarian
SN12C renal = tested on: SN12C renal
SNB-19 CNS = tested on: SNB-19 CNS
SNB-75 CNS = tested on: SNB-75 CNS
SNB-78 CNS = tested on: SNB-78 CNS
SW-620 colon = tested on: SW-620 colon
TK-10 renal = tested on: TK-10 renal
U251 CNS = tested on: U251 CNS
UACC-62 melanoma = tested on: UACC-62 melanoma
UO-31 renal = tested on: UO-31 renal
XF 498 CNS = tested on: XF 498 CNS
BT-549 breast = tested on: BT-549 breast
CAKI-1 renal = tested on: CAKI-1 renal
HS 578T breast = tested on: HS 578T breast
MCF7 breast = tested on: MCF7 breast
MDA-MB-231 breast = tested on: MDA-MB-231 breast
MDA-MB-435 = tested on: MDA-MB-435
MDA-N = tested on: MDA-N
P388/ADR leukemia = tested on: P388/ADR leukemia
PC-3 prostate = tested on: PC-3 prostate
SR leukemia = tested on: SR leukemia
T-47D breast = tested on: T-47D breast

Question: What does the source list for CC1(c2cc3c(cc2Br)OCO3)SCCCS1?
Answer: TGI (786-0 renal): > 100000 nM; TGI (A498 renal): > 100000 nM; TGI (A549 NSCLC): > 100000 nM; TGI (ACHN renal): > 100000 nM; TGI (CCRF-CEM leukemia): > 100000 nM; TGI (COLO 205 colon): > 100000 nM; TGI (DLD-1 colon): > 100000 nM; TGI (DMS 114 small cell lung): > 100000 nM; TGI (DMS 273 small cell lung): > 100000 nM; TGI (EKVX NSCLC): > 100000 nM; TGI (HCC-2998 colon): 77300 nM; TGI (HCT-116 colon): > 100000 nM; TGI (HCT-15 colon): > 100000 nM; TGI (HL-60(TB) leukemia): 65900 nM; TGI (HOP-62 NSCLC): > 100000 nM; TGI (HOP-92 NSCLC): 51700 nM; TGI (HT29 colon): > 100000 nM; TGI (IGROV1 ovarian): > 100000 nM; TGI (K-562 leukemia): > 100000 nM; TGI (KM12 colon): > 100000 nM; TGI (KM20L2 colon): > 100000 nM; TGI (LOX IMVI melanoma): > 100000 nM; TGI (LXFL 529 NSCLC): > 100000 nM; TGI (M14 melanoma): > 100000 nM; TGI (M19-MEL melanoma): > 100000 nM; TGI (MOLT-4 leukemia): 96200 nM; TGI (NCI-H226 lung): > 100000 nM; TGI (NCI-H23 lung): 45500 nM; TGI (NCI-H460 lung): > 100000 nM; TGI (NCI-H522 lung): 7360 nM; TGI (OVCAR-3 ovarian): > 100000 nM; TGI (OVCAR-4 ovarian): > 100000 nM; TGI (OVCAR-5 ovarian): > 100000 nM; TGI (OVCAR-8 ovarian): > 100000 nM; TGI (RPMI-8226 leukemia): 91600 nM; TGI (RXF 393 renal): 37300 nM; TGI (RXF-631 renal): > 100000 nM; TGI (SF-268 CNS): > 100000 nM; TGI (SF-295 CNS): > 100000 nM; TGI (SF-539 CNS): > 100000 nM; TGI (SK-MEL-2 melanoma): 88300 nM; TGI (SK-MEL-28 melanoma): > 100000 nM; TGI (SK-MEL-5 melanoma): 51000 nM; TGI (SK-OV-3 ovarian): > 100000 nM; TGI (SN12C renal): > 100000 nM; TGI (SNB-19 CNS): > 100000 nM; TGI (SNB-75 CNS): > 100000 nM; TGI (SNB-78 CNS): > 100000 nM; TGI (SW-620 colon): > 100000 nM; TGI (TK-10 renal): > 100000 nM; TGI (U251 CNS): > 100000 nM; TGI (UACC-62 melanoma): > 100000 nM; TGI (UO-31 renal): 85100 nM; TGI (XF 498 CNS): 82300 nM

Question: C=C1CC2CC[C@@]34CC5O[C@@H]6C(O[C@H]7CC[C@H](CC(=O)OC8C(C)C9OC%10C[C@]%11(C[C@@H]%12O[C@]%13(CC(C)[C@@H]%14O[C@H](C(O)CC(O)CO)C[C@@H]%14O%13)CC(C)[C@@H]%12O%11)OC%10CC9O[C@H]8C[C@H]8OC(CC[C@@H]1O2)C[C@@H](C)C8=C)OC7[C@@H]6O3)[C@H]5O4 (some centres not stated) was tested. Which TGI (786-0 renal) did it give?
Answer: The TGI was 1220 nM.

Question: What about the TGI (A498 renal) of the same molecule?
Answer: The TGI was 32.1 nM and 6.79 nM.

Question: What about the TGI (A549 NSCLC) of the same molecule?
Answer: Its TGI is 2550 nM and 1650 nM.

Question: And the TGI (ACHN renal)?
Answer: Its TGI is 1280 nM.

Question: What about the TGI (BT-549 breast) of the same molecule?
Answer: The TGI was 2690 nM.

Question: And the TGI (CAKI-1 renal)?
Answer: The TGI was 464 nM and 1540 nM.

Question: What about the GI50 (DLD-1 colon) of the same molecule?
Answer: The GI50 was 0.255 nM.

Question: And the TGI (DLD-1 colon)?
Answer: Its TGI is 2550 nM.

Question: What about the GI50 (DMS 114 small cell lung) of the same molecule?
Answer: The GI50 was 0.255 nM.

Question: And the TGI (DMS 114 small cell lung)?
Answer: Its TGI is 5.54 nM and 8.56 nM.

Question: And the TGI (EKVX NSCLC)?
Answer: The TGI was 2850 nM.

Question: What about the GI50 (HOP-92 NSCLC) of the same molecule?
Answer: Its GI50 is 15.6 nM and 6.03 nM.

Question: What about the GI50 (HS 578T breast) of the same molecule?
Answer: The GI50 was 0.182 nM.

Question: What about the TGI (KM20L2 colon) of the same molecule?
Answer: Its TGI is 1.67 nM.

Question: And the TGI (MCF7 breast)?
Answer: The TGI was 2550 nM and 21400 nM.

Question: And the GI50 (MDA-MB-231 breast)?
Answer: The GI50 was 2.67 nM.

Question: What about the TGI (MDA-MB-435) of the same molecule?
Answer: The TGI was 0.511 nM.

Question: And the GI50 (MDA-N)?
Answer: The GI50 was 0.0269 nM and 0.151 nM.

Question: What about the TGI (MDA-N) of the same molecule?
Answer: The TGI was 0.756 nM and 2.65 nM.

Question: And the TGI (NCI-H226 lung)?
Answer: Its TGI is 7.09 nM and 7.25 nM and 21.7 nM.

Question: And the TGI (NCI-H522 lung)?
Answer: Its TGI is 0.7 nM and 0.489 nM and 0.304 nM.

Question: And the TGI (OVCAR-4 ovarian)?
Answer: Its TGI is 838 nM and 2420 nM.

Question: What about the TGI (OVCAR-5 ovarian) of the same molecule?
Answer: Its TGI is 7.64 nM.

Question: And the TGI (P388/ADR leukemia)?
Answer: Its TGI is 8.46 nM.

Question: What about the GI50 (PC-3 prostate) of the same molecule?
Answer: Its GI50 is 0.886 nM.

Question: What about the TGI (SF-268 CNS) of the same molecule?
Answer: Its TGI is 2550 nM and 1470 nM.

Question: What about the TGI (SF-539 CNS) of the same molecule?
Answer: The TGI was 4.2 nM and 3.72 nM and 1.3 nM.

Question: And the TGI (SK-MEL-2 melanoma)?
Answer: Its TGI is 9.31 nM and 4.34 nM.

Question: What about the GI50 (SK-MEL-28 melanoma) of the same molecule?
Answer: Its GI50 is 1.01 nM.

Question: And the TGI (SN12C renal)?
Answer: Its TGI is 2550 nM and 6410 nM.

Question: What about the TGI (SNB-19 CNS) of the same molecule?
Answer: Its TGI is 1820 nM.

Question: What about the GI50 (SNB-78 CNS) of the same molecule?
Answer: The GI50 was 0.255 nM.

Question: And the TGI (SNB-78 CNS)?
Answer: The TGI was 2550 nM.

Question: And the GI50 (SR leukemia)?
Answer: The GI50 was 0.0153 nM.

Question: And the TGI (SW-620 colon)?
Answer: The TGI was 2550 nM.

Question: What about the TGI (T-47D breast) of the same molecule?
Answer: The TGI was 5320 nM.

Question: What about the TGI (TK-10 renal) of the same molecule?
Answer: The TGI was 16800 nM.

Question: What about the TGI (UO-31 renal) of the same molecule?
Answer: The TGI was 2460 nM.
